In patent publication US6281363A, “Cyclic hydrazine derivatives” (Hoffmann-La Roche Inc., priority 1998, dated 2001):

Tested on: LPS-induced TNF-α release
Assay: inhibition of LPS-induced TNF-α release from THP1 cells (TNF-α by ELISA)
Format: cell-based
Conditions: Homo sapiens, THP-1, LPS 2 mg/ml, 0.5 hour preincubation with compound, 3 hours at 37° C. with LPS, read-out: IC50 (concentration of test compound which brings about 50% inhibition of LPS-induced TNF-α release)
Experimental: Aliquots (200 μl) of the cell suspension were plated out on 96 well culture plates and incubated for 0.5 hour at 37° C. prior to the addition of the test compounds. The latter were dissolved in dimethyl sulphoxide (DMSO) to a stock concentration of 1.2 mM which was diluted with phosphate buffered saline/10% DMSO solution to provide test compounds in final concentrations of 10^-9 to 10^-5 M, with each concentration being tested in duplicate. The cells were incubated with the test compounds for 0.5 hour at 37° C., LPS (bacterial lipopolysaccharide) was then added to a concentration of 2 mg/ml and incubation was continued for 3 hours at 37° C. in an atmosphere containing 5% CO2 and at 95% relative humidity. After centrifugation at 260 g for 10 minutes an aliquot of each supernatant was removed and the amount of TNF-α was estimated by ELISA (R & D Systems Europe Ltd., Abingdon, England).

Row | SMILES | IC50 [nM]
1 | CC(C)C[C@@H](C(=O)NN1C(=O)CNC1=O)[C@H](Cc1ccc(-c2ccccc2)cc1)C(=O)NO [Compound S, 2(R)-[2-(4-Biphenylyl)-1(S)-(hydroxycarbamoyl)ethyl]-N-(2,5-dioxo-1-imidazolidinyl)-4-methylvaleramide] | 308
2 | COC[C@@H]1NC(=O)N(NC(=O)[C@H](CC(C)C)[C@H](CCCc2ccccc2)C(=O)NO)C1=O [Compound P] | 346
3 | CC(C)C[C@@H](C(=O)NN1C(=O)N[C@@H](CO)C1=O)[C@H](CCCc1ccccc1)C(=O)NO [Compound I, 2(R)-[1(S)-(Hydroxycarbamoyl)-4-phenylbutyl]-N-[4(S)-(hydroxymethyl)-2,5-dioxo-1-imidazolidinyl]-4-methylvaleramide] | 387
4 | CC(C)C[C@@H](C(=O)NN1C(=O)CCNC1=O)[C@H](C/C=C/c1ccccc1)C(=O)NO [Compound B, (E)-N-(Hexahydro-2,6-dioxo-1-pyrimidinyl)-2(R)-[1(S)-(hydroxycarbamoyl)-4-phenyl-3-butenyl]-4-methylvaleramide] | 382
5 | CC[C@H](C)[C@@H]1NC(=O)N(NC(=O)[C@H](CC(C)C)[C@H](C/C=C/c2ccccc2)C(=O)NO)C1=O [Compound K, (E)-2(R)-[1(S)-(Hydroxycarbamoyl)-4-phenyl-3-butenyl]-N-[4(S)-(1(S)-methylpropyl)-2,5-dioxo-1-imidazolidinyl]-4-methylvaleramide] | 162
6 | CC(C)C[C@@H](C(=O)NN1C(=O)NCCS1(=O)=O)[C@H](C/C=C/c1ccccc1)C(=O)NO [Compound D, (E)-N-(Tetrahydro-3-oxo-2H-1,2,4-thiadiazin-2-yl)-2(R)-[1(S)-(hydroxycarbamoyl)-4-phenyl-3-butenyl]-4-methylvaleramide S,S-dioxide] | 389
7 | CSCC[C@@H]1NC(=O)N(NC(=O)[C@H](CC(C)C)[C@H](CCCc2ccccc2)C(=O)NO)C1=O [Compound H, 2(R)-[1(S)-(Hydroxycarbamoyl)-4-phenylbutyl]-4-methyl-N-[4(S)-[2-(methylthio)ethyl]-2,5-dioxo-1-imidazolidinyl]valeramide] | 234
8 | CC[C@H](C)[C@@H]1NC(=O)N(NC(=O)[C@H](CC(C)C)[C@H](CCCc2ccccc2)C(=O)NO)C1=O [Compound G] | 147
9 | CC(C)C[C@@H](C(=O)NN1C(=O)CNC1=O)[C@H](CCCc1ccccc1)C(=O)NO [Compound Q, 2(R)-[1(S)-(Hydroxycarbamoyl)-4-phenylbutyl]-4-methyl-N-(2,5-dioxo-1-imidazolidinyl)valeramide] | 234
10 | CC(C)C[C@@H](C(=O)NN1C(=O)CNCC1=O)[C@H](CCCc1ccccc1)C(=O)NO [Compound E, 2(R)-[1(S)-(Hydroxycarbamoyl)-4-phenylbutyl]-4-methyl-N-(2,6-dioxo-1-piperazinyl)valeramide p-toluenesulphonate] | 1450
11 | CC(C)C[C@@H](C(=O)Nn1c(=O)[nH]c2ccsc2c1=O)[C@H](CCCc1ccccc1)C(=O)NO [Compound N, N-(1,2,3,4-Tetrahydro-2,4-dioxothieno[3,2-d]pyrimidin-3-yl)-2(R)-[1(S)-(hydroxycarbamoyl)-4-phenylbutyl]-4-methylvaleramide] | 172
12 | CC(C)C[C@@H](C(=O)Nn1c(=O)[nH]c2cscc2c1=O)[C@H](CCCc1ccccc1)C(=O)NO [Compound O, N-(1,2,3,4-Tetrahydro-2,4-dioxothieno[3,4-d]pyrimidin-3-yl)-2(R)-[1(S)-(hydroxycarbamoyl)-4-phenylbutyl]-4-methylvaleramide] | 177
13 | CC(C)C[C@@H](C(=O)NN1C(=O)N[C@@H](C(C)C)C1=O)[C@H](CCCc1ccccc1)C(=O)NO [Compound F, 2(R)-[1(S)-(Hydroxycarbamoyl)-4-phenylbutyl]-N-(4(S)-isopropyl-2,5-dioxo-1-imidazolidinyl)-4-methylvaleramide] | 156
14 | CC(=O)N1CCC2(CC1)NC(=O)N(NC(=O)[C@H](CC(C)C)[C@H](CCCc1ccccc1)C(=O)NO)C2=O [Compound R, 1-(8-Acetyl-2,4-dioxo-1,3,8-triazaspiro[4. 5]decan-3-yl)-2(R)-[1(S)-(hydroxycarbamoyl)-4-phenylbutyl]-4-methylvaleramide] | 481
15 | CC(C)C[C@@H](C(=O)NN1C(=O)[C@H](C(C)C)NC1=S)[C@H](CCCc1ccccc1)C(=O)NO [Compound J, 2(R)-[1(S)-(Hydroxycarbamoyl)-4-phenylbutyl]-N-(4(S)-isopropyl-5-oxo-2-thioxo-1-imidazolidinyl)-4-methylvaleramide] | 597
16 | CC(C)C[C@@H](C(=O)NN1C(=O)CNC1=O)[C@H](CCCC1CCCCC1)C(=O)NO [Compound C, 2(R)-[4-Cyclohexyl-1(S)-(hydroxycarbamoyl)butyl]-4-methyl-N-(2,5-dioxo-1-imidazolidinyl)valeramide] | 242
17 | CC(C)C[C@@H](C(=O)NN1C(=O)CNC1=O)[C@H](C/C=C/c1ccccc1)C(=O)NO [Compound A, (E)-2(R)-[1(S)-(Hydroxycarbamoyl)-4-phenyl-3-butenyl]-4-methyl-N-(2,5-dioxo-1-imidazolidinyl)valeramide] | 280
18 | CC(C)C[C@@H](C(=O)NN1C(=O)N[C@@H](CO)C1=O)[C@H](C/C=C/c1ccccc1)C(=O)NO [Compound L, (E)-2(R)-[1(S)-(Hydroxycarbamoyl)-4-phenyl-3-butenyl]-N-[4(S)-(hydroxymethyl)-2,5-dioxo-1-imidazolidinyl]-4-methylvaleramide] | 302
19 | CC(C)C[C@@H](C(=O)NN1C(=O)NC2(CCN(C(=O)OCc3ccccc3)CC2)C1=O)[C@H](CCCc1ccccc1)C(=O)NO [Compound M, Benzyl 3-[2(R)-[1(S)-(hydroxycarbamoyl)-4-phenylbutyl]-4-methylvaleramido]-2,4-dioxo-1,3,8-triazaspiro[4,5]decane-8-carboxylate] | 620
